Patent publication US6737383B1, “Herbicidal oxadiazolidines” (priority 1999, dated 2004)

Legend:
surinam grass = test: Test B pre/postemergence surinam grass; format: in vivo, Brachiaria decumbens
Summary of the method: (§1)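 Response is a visual 0-to-10 score relative to untreated plants, where 0 means no effect and 10 means complete control, taken twelve to sixteen days after application. Treatments went onto soil at planting and onto foliage of 1- to 4-leaf plants, using a surfactant-containing non-phytotoxic solvent.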

cocklebur = test: Test B pre/postemergence cocklebur; format: in vivo, Xanthium strumarium
Summary of the method: as §1

corn = test: Test B pre/postemergence corn; format: in vivo, Zea mays
Summary of the method: as §1

giant foxtail = test: Test B pre/postemergence giant foxtail; format: in vivo, Setaria faberii
Summary of the method: as §1

morningglory = test: Test B pre/postemergence morningglory; format: in vivo, Ipomoea hederacea
Summary of the method: as §1

pigweed = test: Test B pre/postemergence pigweed; format: in vivo, Amaranthus retroflexus
Summary of the method: as §1

rape = test: Test B pre/postemergence rape; format: in vivo, Brassica napus
Summary of the method: as §1

soybean = test: Test B pre/postemergence soybean; format: in vivo, Glycine max
Summary of the method: as §1

sugar beet = test: Test B pre/postemergence sugar beet; format: in vivo, Beta vulgaris
Summary of the method: as §1

velvetleaf = test: Test B pre/postemergence velvetleaf; format: in vivo, Abutilon theophrasti
Summary of the method: as §1

wheat = test: Test B pre/postemergence wheat; format: in vivo, Triticum aestivum
Summary of the method: as §1

wild oat = test: Test B pre/postemergence wild oat; format: in vivo, Avena fatua
Summary of the method: as §1

rice = test: Test B flood test rice; format: in vivo, Oryza sativa
Summary of the method: (§2)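 Read-out is a visual response score from 0 (no effect) to 10 (complete control), assigned by comparison with untreated controls. Treatment was applied at the 2-leaf stage, and plants stayed in the greenhouse for twelve to sixteen days before scoring.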

smallflower flatsedge = test: Test B flood test smallflower flatsedge; format: in vivo, Cyperus difformis
Summary of the method: as §2

duck salad = test: Test B flood test duck salad; format: in vivo, Heteranthera limosa
Summary of the method: as §2

bamyardgrass = test: Test B flood test barnyardgrass; format: in vivo, Echinochloa crus-galli
Summary of the method: as §2

[1] = Postemergence, Rate 62 g/ha, scale 0 to 10, 0 is no effect, 10 is complete control
[2] = Postemergence, Rate 125 g/ha, scale of 0 to 10 where 0 is no effect and 10 is complete control
[3] = Postemergence, Rate 250 g/ha, scale of 0 to 10, 0 is no effect, 10 is complete control
[4] = Postemergence, Rate 500 g/ha, scale of 0 to 10 where 0 is no effect and 10 is complete control
[5] = Preemergence, Rate 62 g/ha, scale of 0 to 10 where 0 is no effect and 10 is complete control
[6] = Preemergence, Rate 125 g/ha, scale of 0 to 10 where 0 is no effect and 10 is complete control
[7] = Preemergence, Rate 250 g/ha, scale 0 to 10 (0 no effect, 10 complete control)
[8] = Preemergence, Rate 500 g/ha, scale of 0 to 10 where 0 is no effect and 10 is complete control
[9] = Rate 62 g/ha, flood test species, Pre-emergence, visual evaluation after twelve to sixteen days
[10] = Rate 125 g/ha, under heading Pre-emergence, flood test species, visual evaluation after twelve to sixteen days
[11] = Rate 250 g/ha, Pre-emergence (flood test species), scale 0 to 10, 0 is no effect, 10 is complete control
[12] = Rate 500 g/ha, Pre-emergence section of Table B, 0 to 10 scale (0 no effect, 10 complete control)

## CC(C)N(C(=O)n1oc(=O)n(CC(=O)C2CC2)c1=O)c1ccc(Cl)cc1 [Compound 639]
Surinam grass; [1]
  Plant response rating, B. signalgrass: 0
Surinam grass; [2]
  Plant response rating, B. signalgrass: 0
Surinam grass; [3]
  B. signalgrass plant response rating: 0
Surinam grass; [4]
  Plant response rating, B. signalgrass: 2
Surinam grass; [5]
  B. signalgrass plant response rating: 0
Surinam grass; [6]
  B. signalgrass plant response rating: 0
Surinam grass; [7]
  Plant response rating, B. signalgrass: 5
Surinam grass; [8]
  Plant response rating, B. signalgrass: 7
cocklebur; [1]
  Plant response rating, Cocklebur: 0
cocklebur; [2]
  Plant response rating, Cocklebur: 0
cocklebur; [3]
  Cocklebur plant response rating: 2
cocklebur; [4]
  Plant response rating, Cocklebur: 2
cocklebur; [5]
  Cocklebur plant response rating: 0
cocklebur; [6]
  Cocklebur plant response rating: 0
cocklebur; [7]
  Plant response rating, Cocklebur: 0
cocklebur; [8]
  Plant response rating, Cocklebur: 2
corn; [1]
  Plant response rating, Corn: 0
corn; [2]
  Plant response rating, Corn: 0
corn; [3]
  Corn plant response rating: 0
corn; [4]
  Plant response rating, Corn: 0
corn; [5]
  Corn plant response rating: 0
corn; [6]
  Corn plant response rating: 0
corn; [7]
  Plant response rating, Corn: 0
corn; [8]
  Plant response rating, Corn: 0
Giant foxtail; [1]
  Plant response rating, Giant foxtail: 0
Giant foxtail; [2]
  Plant response rating, Giant foxtail: 0
Giant foxtail; [3]
  Giant foxtail plant response rating: 6
Giant foxtail; [4]
  Plant response rating, Giant foxtail: 7
Giant foxtail; [5]
  Giant foxtail plant response rating: 7
Giant foxtail; [6]
  Giant foxtail plant response rating: 9
Giant foxtail; [7]
  Plant response rating, Giant foxtail: 9
Giant foxtail; [8]
  Plant response rating, Giant foxtail: 9
morningglory; [1]
  Plant response rating, Morningglory: 0
morningglory; [2]
  Plant response rating, Morningglory: 3
morningglory; [3]
  Morningglory plant response rating: 7
morningglory; [4]
  Plant response rating, Morningglory: 7
morningglory; [5]
  Morningglory plant response rating: 0
morningglory; [6]
  Morningglory plant response rating: 0
morningglory; [7]
  Plant response rating, Morningglory: 0
morningglory; [8]
  Plant response rating, Morningglory: 0
pigweed; [1]
  Plant response rating, Redroot pigweed: 3
pigweed; [2]
  Plant response rating, Redroot pigweed: 4
pigweed; [3]
  Redroot pigweed plant response rating: 4
pigweed; [5]
  Redroot pigweed plant response rating: 0
pigweed; [6]
  Redroot pigweed plant response rating: 0
pigweed; [7]
  Plant response rating, Redroot pigweed: 2
pigweed; [8]
  Plant response rating, Redroot pigweed: 10
rape; [1]
  Plant response rating, Rape: 0
rape; [2]
  Plant response rating, Rape: 0
rape; [3]
  Rape plant response rating: 0
rape; [4]
  Plant response rating, Rape: 3
rape; [5]
  Rape plant response rating: 0
rape; [6]
  Rape plant response rating: 0
rape; [7]
  Plant response rating, Rape: 3
rape; [8]
  Plant response rating, Rape: 10
soybean; [1]
  Plant response rating, Soybean: 0
soybean; [2]
  Plant response rating, Soybean: 0
soybean; [3]
  Soybean plant response rating: 3
soybean; [5]
  Soybean plant response rating: 0
soybean; [6]
  Soybean plant response rating: 0
soybean; [7]
  Plant response rating, Soybean: 0
soybean; [8]
  Plant response rating, Soybean: 3
Sugar beet; [1]
  Plant response rating, Sugarbeets: 0
Sugar beet; [2]
  Plant response rating, Sugarbeets: 0
Sugar beet; [3]
  Sugarbeets plant response rating: 0
Sugar beet; [5]
  Sugarbeets plant response rating: 0
Sugar beet; [6]
  Sugarbeets plant response rating: 0
Sugar beet; [7]
  Plant response rating, Sugarbeets: 0
Sugar beet; [8]
  Plant response rating, Sugarbeets: 6
velvetleaf; [1]
  Plant response rating, Velvetleaf: 0
velvetleaf; [2]
  Plant response rating, Velvetleaf: 0
velvetleaf; [3]
  Velvetleaf plant response rating: 0
velvetleaf; [5]
  Velvetleaf plant response rating: 0
velvetleaf; [6]
  Velvetleaf plant response rating: 0
velvetleaf; [7]
  Plant response rating, Velvetleaf: 0
velvetleaf; [8]
  Plant response rating, Velvetleaf: 3
wheat; [1]
  Plant response rating, Wheat: 0
wheat; [2]
  Plant response rating, Wheat: 0
wheat; [3]
  Wheat plant response rating: 0
wheat; [5]
  Wheat plant response rating: 0
wheat; [6]
  Wheat plant response rating: 0
wheat; [7]
  Plant response rating, Wheat: 0
wheat; [8]
  Plant response rating, Wheat: 0
Wild oat; [1]
  Plant response rating, Wild oats: 1
Wild oat; [2]
  Plant response rating, Wild oats: 1
Wild oat; [3]
  Wild oats plant response rating: 1
Wild oat; [5]
  Wild oats plant response rating: 0
Wild oat; [6]
  Wild oats plant response rating: 0
Wild oat; [7]
  Plant response rating, Wild oats: 0
Wild oat; [8]
  Plant response rating, Wild oats: 3
rice; [9]
  Plant response rating, Rice (0 to 10 scale, 0 is no effect, 10 is complete control): 0
rice; [10]
  Rice plant response rating (0 to 10 scale, 0 is no effect, 10 is complete control): 0
rice; [11]
  Rice plant response rating: 0
rice; [12]
  Rice plant response rating: 0
Smallflower flatsedge; [9]
  Plant response rating, S. Flatsedge (0 to 10 scale, 0 is no effect, 10 is complete control): 0
Smallflower flatsedge; [10]
  S. Flatsedge plant response rating (0 to 10 scale, 0 is no effect, 10 is complete control): 0
Smallflower flatsedge; [11]
  S. Flatsedge plant response rating: 0
Smallflower flatsedge; [12]
  S. Flatsedge plant response rating: 0
Duck salad; [9]
  Plant response rating, Ducksalad (0 to 10 scale, 0 is no effect, 10 is complete control): 0
Duck salad; [10]
  Ducksalad plant response rating (0 to 10 scale, 0 is no effect, 10 is complete control): 0
Duck salad; [11]
  Ducksalad plant response rating: 0
Duck salad; [12]
  Ducksalad plant response rating: 0
bamyardgrass; [9]
  Plant response rating, Barnyardgrass (0 to 10 scale, 0 is no effect, 10 is complete control): 0
bamyardgrass; [10]
  Barnyardgrass plant response rating (0 to 10 scale, 0 is no effect, 10 is complete control): 0
bamyardgrass; [11]
  Barnyardgrass plant response rating: 0
bamyardgrass; [12]
  Barnyardgrass plant response rating: 0
